Patent US10632125B2, “MTH1 inhibitors for treatment of inflammatory and autoimmune conditions” (THOMAS HELLEDAYS STIFTELSE FÖR MEDICINSK FORSKNING, priority 2014, dated 2020)

Target: MTH1 (Homo sapiens, UniProt P36639)
Assay: MTH1 enzymatic assay (malachite green, coupled to pyrophosphatase)
Type: biochemical
Details: not given

IC50 | Structure (SMILES)
< 200 nM | [2H]C([2H])([2H])Nc1cc(-c2cccc(Cl)c2Cl)nc(N)n1 [Example 421, 6-(2,3-dichlorophenyl)-4-N-(^2H3)methylpyrimidine-2,4-diamine]

Same assay, conditions: dGTP 100 μM, MTH1 6 nM; 96- or 384-well format; read-out: IC50

Structure (SMILES) | IC50
Cc1cc2cc(CNc3cc(-c4cccc(C)c4C)nc(N)n3)ccc2[nH]1 [Example 364, 6-(2,3-Dimethylphenyl)-4-N-[(2-methyl-1H-indol-5-yl)methyl]pyrimidine-2,4-diamine] | < 200 nM
Cc1cccc(-c2cc(NCCCCNC(=O)OC(C)(C)C)nc(N)n2)c1C [Example 370, tert-Butyl N-(4-{[2-amino-6-(2,3-dimethylphenyl)pyrimidin-4-yl]amino}butyl)-carbamate] | < 200 nM
Cc1cccc(-c2cc(NCCCCCNC(=O)OC(C)(C)C)nc(N)n2)c1C [Example 371, tert-Butyl N-(5-{[2-amino-6-(2,3-dimethylphenyl)pyrimidin-4-yl]amino}pentyl)-carbamate] | < 200 nM
Cc1cccc(-c2cc(NCCCNS(=O)(=O)c3ccc(S(C)(=O)=O)cc3)nc(N)n2)c1C [Example 375, N-(3-{[2-Amino-6-(2,3-dimethylphenyl)pyrimidin-4-yl]amino}propyl)-4-methanesulfonylbenzene-1-sulfonamide] | < 200 nM
CC(=O)Nc1ccc(S(=O)(=O)NCCCNc2cc(-c3cccc(C)c3C)nc(N)n2)cc1 [Example 382, N-{4-[(3-{[2-Amino-6-(2,3-dimethylphenyl)pyrimidin-4-yl]amino}propyl)sulfamoyl]-phenyl}acetamide] | < 200 nM
COc1ccc(S(=O)(=O)NCCNc2cc(-c3cccc(C)c3C)nc(N)n2)cc1 [Example 385, N-(2-{[2-Amino-6-(2,3-dimethylphenyl)pyrimidin-4-yl]amino}ethyl)-4-methoxybenzene-1-sulfonamide] | < 200 nM
Cc1cccc(-c2cc(NCCCNS(=O)(=O)c3cc(Cl)c(Cl)s3)nc(N)n2)c1C [Example 388, N-(3-{[2-Amino-6-(2,3-dimethylphenyl)pyrimidin-4-yl]amino}propyl)-4,5-dichlorothiophene-2-sulfonamide] | < 200 nM
Cc1cccc(-c2cc(NCCNc3nc4ccccc4o3)nc(N)n2)c1C [Example 393, 4-N-{2-[(1,3-Benzoxazol-2-yl)amino]ethyl}-6-(2,3-dimethylphenyl)pyrimidine-2,4-diamine] | < 200 nM
Cc1cccc(-c2cc(NC(C)CCc3ccccc3)nc(N)n2)c1C (centres unmarked) [Example 394, 6-(2,3-Dimethylphenyl)-4-N-(4-phenylbutan-2-yl)pyrimidine-2,4-diamine] | < 200 nM
Cc1cccc(-c2cc(NCCNc3nc(Br)ns3)nc(N)n2)c1C [Example 398, 4-N-{2-[(3-Bromo-1,2,4-thiadiazol-5-yl)amino]ethyl}-6-(2,3-dimethylphenyl)pyrimidine-2,4-diamine] | < 200 nM
Cc1cccc(-c2cc(NCCc3nnc(-c4ccc(F)cc4)o3)nc(N)n2)c1C [Example 400, 6-(2,3-Dimethylphenyl)-4-N-{2-[5-(4-fluorophenyl)-1,3,4-oxadiazol-2-yl]ethyl}pyrimidine-2,4-diamine] | < 200 nM
Cc1cccc(-c2cc(NCCNS(=O)(=O)c3ccc(S(C)(=O)=O)cc3)nc(N)n2)c1C [Example 401, N-(2-{[2-Amino-6-(2,3-dimethylphenyl)pyrimidin-4-yl]amino}ethyl)-4-methanesulfonylbenzene-1-sulfonamide] | < 200 nM
Cc1nc(CCNc2cc(-c3cccc(Cl)c3C)nc(N)n2)n[nH]1 [Example 412, 6-(3-chloro-2-methylphenyl)-4-N-[2-(5-methyl-1H-1,2,4-triazol-3-yl)ethyl]pyrimidine-2,4-diamine] | < 200 nM
Cc1c(Cl)cccc1-c1cc(NCCc2ccc(S(=O)(=O)N(C)C)cc2)nc(N)n1 [Example 414, 4-(2-{[2-amino-6-(3-chloro-2-methylphenyl)pyrimidin-4-yl]amino}ethyl)-N,N-dimethylbenzene-1-sulfonamide] | < 200 nM
Cc1cccc(-c2cc(NC3(Cc4ccc(Cl)cc4)CC3)nc(N)n2)c1C [Example 417, 4-N-{1-[(4-Chlorophenyl)methyl]cyclopropyl}-6-(2,3-dimethylphenyl)pyrimidine-2,4-diamine] | < 200 nM
Cc1c(F)ccc(-c2cc(NCCc3ccc(S(N)(=O)=O)cc3)nc(N)n2)c1C [Example 425, 4-(2-{[2-amino-6-(4-fluoro-2,3-dimethylphenyl)pyrimidin-4-yl]amino}ethyl)benzene-1-sulfonamide] | < 200 nM
Cc1ccc(Cl)cc1-c1cc(NCCc2ccc(S(N)(=O)=O)cc2)nc(N)n1 [Example 427, 4-(2-{[2-amino-6-(5-chloro-2-methylphenyl)pyrimidin-4-yl]amino}ethyl)benzene-1-sulfonamide] | < 200 nM
Cc1c(-c2cc(NCCc3ccc(S(C)(=O)=O)cc3)nc(N)n2)ccc(Cl)c1Cl [Example 431, 6-(3,4-dichloro-2-methylphenyl)-4-N-[2-(4-methanesulfonylphenyl)ethyl]pyrimidine-2,4-diamine] | < 200 nM
Nc1nc(NCCc2ccc(S(N)(=O)=O)cc2)cc(-c2ccc(F)cc2Cl)n1 [Example 433, 4-(2-{[2-amino-6-(2-chloro-4-fluorophenyl)pyrimidin-4-yl]amino}ethyl)benzene-1-sulfonamide] | < 200 nM
Cc1cc(-c2cc(NCCc3ccc(S(N)(=O)=O)cc3)nc(N)n2)ccc1F [Example 435, 4-(2-{[2-amino-6-(4-fluoro-3-methylphenyl)pyrimidin-4-yl]amino}ethyl)benzene-1-sulfonamide] | < 200 nM
Cc1c(C#N)cccc1-c1cc(NC2CC2)nc(N)n1 [Example 437, 3-[2-amino-6-(cyclopropylamino)pyrimidin-4-yl]-2-methylbenzonitrile] | < 200 nM
C#CCNc1cc(-c2cccc(Cl)c2Cl)nc(N)n1 [Example 438, 6-(2,3-dichlorophenyl)-4-N-(prop-2-yn-1-yl)pyrimidine-2,4-diamine] | < 200 nM
Cc1cccc(-c2cc(NCCc3c(C)n[nH]c3C)nc(N)n2)c1C [Example 440, 4-N-[2-(3,5-dimethyl-1H-pyrazol-4-yl)ethyl]-6-(2,3-dimethylphenyl)pyrimidine-2,4-diamine] | < 200 nM
Cc1cccc(-c2cc(NCCNc3ccc(Cl)nn3)nc(N)n2)c1C [Example 441, 4-N-{2-[(6-chloropyridazin-3-yl)amino]ethyl}-6-(2,3-dimethylphenyl)pyrimidine-2,4-diamine] | < 200 nM
Cc1cccc(-c2cc(NCCNc3cc(C#N)ccn3)nc(N)n2)c1C [Example 442, 2-[(2-{[2-amino-6-(2,3-dimethylphenyl)pyrimidin-4-yl]amino}ethyl)amino]pyridine-4-carbonitrile] | < 200 nM

Further lines, results first:

IC50 | Structure (SMILES)
< 200 nM | C#CC(=O)Nc1cccc(-c2cc(NC)nc(N)n2)c1 [Example 314, N-{3-[2-Amino-6-(methylamino)pyrimidin-4-yl]phenyl}prop-2-ynamide]
< 200 nM | CNc1cc(-c2cccc(NC(=O)c3cc(Cl)ccc3O)c2)nc(N)n1 [Example 321, N-{3-[2-Amino-6-(methylamino)pyrimidin-4-yl]phenyl}-5-chloro-2-hydroxybenzamide]
< 200 nM | CNc1cc(-c2cccc(NC(=O)CCC(=O)N3CCCC3)c2)nc(N)n1 [Example 325, N-{3-[2-Amino-6-(methylamino)pyrimidin-4-yl]phenyl}-4-oxo-4-(pyrrolidin-1-yl)butanamide]
< 200 nM | CNc1cc(-c2cccc(CN)c2)nc(N)n1 [Example 328, 6-[3-(Aminomethyl)phenyl]-4-N-methylpyrimidine-2,4-diamine]
< 200 nM | Cc1nc(CCNc2cc(-c3cccc(C)c3C)nc(N)n2)n[nH]1 [Example 332, 6-(2,3-Dimethylphenyl)-4-N-[2-(5-methyl-1H-1,2,4-triazol-3-yl)ethyl]pyrimidine-2,4-diamine]
< 200 nM | Cc1cccc(-c2cc(NCCn3ccccc3=O)nc(N)n2)c1C [Example 337, 1-(2-{[2-Amino-6-(2,3-dimethylphenyl)pyrimidin-4-yl]amino}ethyl)-1,2-dihydropyridin-2-one]
< 200 nM | Cc1cccc(-c2cc(NCc3ccc[nH]c3=O)nc(N)n2)c1C [Example 338, 3-({[2-Amino-6-(2,3-dimethylphenyl)pyrimidin-4-yl]amino}methyl)-1,2-dihydropyridin-2-one]
< 200 nM | Cc1cccc(-c2cc(NCCc3cccc(Cl)c3)nc(N)n2)c1C [Example 341, 4-N-[2-(3-Chlorophenyl)ethyl]-6-(2,3-dimethylphenyl)pyrimidine-2,4-diamine]
< 200 nM | Cc1cccc(-c2cc(NCCCn3ccnc3)nc(N)n2)c1C [Example 342, 6-(2,3-Dimethylphenyl)-4-N-[3-(1H-imidazol-1-yl)propyl]pyrimidine-2,4-diamine]
< 200 nM | Cc1cccc(-c2cc(NCCc3ccc(F)cc3)nc(N)n2)c1C [Example 344, 6-(2,3-Dimethylphenyl)-4-N-[2-(4-fluorophenyl)ethyl]pyrimidine-2,4-diamine]
< 200 nM | Cc1cccc(-c2cc(NCCc3scnc3C)nc(N)n2)c1C [Example 352, 6-(2,3-Dimethylphenyl)-4-N-[2-(4-methyl-1,3-thiazol-5-yl)ethyl]pyrimidine-2,4-diamine]
< 200 nM | Cc1cccc(-c2cc(NCC3CCCN(c4ccccn4)C3)nc(N)n2)c1C (centres unmarked) [Example 355, 6-(2,3-Dimethylphenyl)-4-N-{[1-(pyridin-2-yl)piperidin-3-yl]methyl}pyrimidine-2,4-diamine]
< 200 nM | Cc1cccc(-c2cc(NCc3cnn(-c4ccccc4)n3)nc(N)n2)c1C [Example 356, 6-(2,3-Dimethylphenyl)-4-N-[(2-phenyl-2H-1,2,3-triazol-4-yl)methyl]pyrimidine-2,4-diamine]
< 200 nM | Cc1cccc(-c2cc(NCCCNS(=O)(=O)c3ccc(Cl)cc3)nc(N)n2)c1C [Example 357, N-(3-{[2-Amino-6-(2,3-dimethylphenyl)pyrimidin-4-yl]amino}propyl)-4-chlorobenzene-1-sulfonamide]
< 200 nM | Cc1cccc(-c2cc(NCCCNC(=O)Nc3ccc(F)c(F)c3)nc(N)n2)c1C [Example 362, 3-(3-{[2-Amino-6-(2,3-dimethylphenyl)pyrimidin-4-yl]amino}propyl)-1-(3,4-difluorophenyl)urea]
